Source: patent US12419963B2, “Diels-Alder conjugation methods” (priority 2020, dated 2025)
Square brackets hold non-standard residues; d marks the D form. Peptide text beside a SMILES is read from it. * marks the point of attachment. Dolaproine = CO[C@@H]([C@@H]1CCCN1)[C@@H](C)C(=O)O; Dil = CC[C@H](C)[C@H](NC)[C@@H](CC(=O)O)OC; X1 = C[C@@H](N*)[C@H](O)c1ccccc1; NMeV = CN[C@H](C(=O)O)C(C)C

How the values were obtained:
SKBR3 (Her2+) cells = test: In vitro cytotoxicity assay (CCK8 cell viability), SKBR3; format: cell-based
Procedure: (§1) In this Example, the ability of various antibody-drug conjugates and naked payloads to kill antigen-expressing tumor cells in vitro was assessed.
(§2) SKBR3 (Her2+) cells were seeded in 96 well plates at 8000 cells per well in complete growth media and grown overnight. For cell viability curves, serially diluted conjugates or naked payloads were added to the cells at final concentrations ranging from 100 nM to 5 pM and incubated for 3 days. NCI H929 and NCI H1975 (Her2−) cells were run as negative controls using similar conditions. To measure viability, cells were incubated with CCK8 (Dojindo) for the final 2 hours and the absorbance at 450 nm (OD450) was determined on a Victor (Perkin Elmer). Background OD450 levels determined from digitonin (40 nM) treated cells were subtracted from all wells and viability was expressed as a percentage of the untreated controls. IC50 values were determined from a four-parameter logistic equation over a 10-point response curve (GraphPad Prism). […] The interchain disulfide conjugates had similar IC50 values as the transglutaminase site-specific Diels-Alder conjugates. […] IC50 values are corrected for payload equivalents and the results of other transglutaminase site-specific Diels-Alder conjugates' cell viability are shown in Table 5. […]

NCI H929 (Her2−) cells = test: In vitro cytotoxicity assay (CCK8 cell viability), NCI H929 negative control; format: cell-based
Procedure: as §1, §2

Structure (SMILES): CC[C@H](C)[C@@H]([C@@H](CC(=O)N1CCC[C@H]1[C@H](OC)[C@@H](C)C(=O)N[C@H](C)[C@H](O)c1ccccc1)OC)N(C)C(=O)[C@@H](NC(=O)[C@@H](NC)C(C)C)C(C)C [MMAE, Monomethyl auristatin E] (H-[NMeV]V[Dil][Dolaproine]-X1)
- IC50 (SKBR3 (Her2+) cells; Homo sapiens, SK-BR-3, 72 h): 0.031 nM
- % Kill (SKBR3 (Her2+) cells; SK-BR-3 cells, 3 days incubation, CCK8): 97.3%
- IC50 (NCI H929 (Her2−) cells; Homo sapiens, NCI-H929, 72 h): 0.209 nM
- % Kill (NCI H929 (Her2−) cells; NCI H929 cells (HER2-), 3 days incubation, CCK8): 99.7%
